According to patent publication US20250019379A1, “NEW CRYSTAL FORM OF COMPOUND, AND PREPARATION METHOD THEREFOR AND USE THEREOF” (E-nitiate Biopharmaceuticals (Hangzhou) Co., Ltd, priority 2021, published 2025):
Where “and” joins values, the source holds several entries; their conditions need not be identical. Equal entries are not always repeated. Marks after values point to notes of the source that are not given here.

How the values were obtained:
[1] = system: atopic dermatitis animal model; assay: Atopic dermatitis animal model (dinitrochlorobenzene induced); assay type: in vivo, BALB/C mice; settings: for Inhibition rate of auricular thickening / Inhibition rate of skin thickening: 10th day of treatment
From the text: BALB/C mice, 55 pieces, female, were 6 weeks old at the time of purchase and 8 weeks old at the time of experiment, weighing 18 g-20 g. The animals were from Shanghai Lingchang Biotechnology Co, Ltd (SCXK (Shanghai) 2018-0003), experimental animal production certificate number 20180003012342: experimental animal use license number; SYXK(Shanghai)2020-0001 (Via Biotechnology (Shanghai) Ltd.).
Modeling and administration method; Use depilatory cream to remove the hair of an area of about 5 cm×2 cm from the top of the head to the back of each animal. The application time of the depilatory cream should be controlled within 2 minutes. Wash the depilated area with warm water and wash off the depilatory agent, immediately use a hair dryer to dry the animal's hair, and place the animal on a 37° C. constant-temperature electric blanket for 1 h-2 h. After the animal moves freely, place it in a breeding cage and recover for 1 day (if the animal's skin is red, swollen and damaged after hair removal, it will its elimination). On the second day, 42 animals with normal skin were selected and randomly divided into groups according to body weight, with 6 animals in each group, totaling 7 groups. Except for the G1 normal control group, each animal in the other groups was evenly smeared with 200 μL of 0.5 wt % dinitrochlorobenzene solution (the solvent was acetone and olive oil with a mass ratio of 3:1) on the back and auricle for three consecutive days every day. Induction (the first stage of induction), the second stage of induction started after 14 days, and was induced with 1 wt % dinitrochlorobenzene solution (the solvent was acetone and olive oil with a mass ratio of 3:1) every three days until the end of the experiment, start treatment and administration at the same time, and group administration is shown in Table 6.
Skin thickness (double layer): Use a vernier caliper to measure the double layer thickness of the back skin on the 1 day before modeling, and on the 14th, 17th, 20th, 23rd, 26th, and 28th days after modeling.
Auricle thickness: Use a vernier caliper to measure the thickness of the right auricle 1 day before modeling, and on days 14, 17, 20, 23, 26, and 28 after modeling.
AD-SI score: The condition score refers to the clinical SI scoring standard, and scores three indicators: skin color/erythema, scaly erythema, scaly/peeling/lichenification, thickening, and thickening/edema degree. The total score is 12 points. Scoring standard as follows:
Erythema/skin color: 0 points, none; 1 points, slight: light red; 2 points, moderate: red; 3 points, significant: dark red; 4 points, very obvious: extremely deep red.
Scaling/peeling/lichenification: 0 points, none; 1 point, slight: there are scales/peeling/lichenification on part of the epidermis, mainly subtle; 2 points, moderate: most of the skin surface is completely or incompletely covered with Scaling/peeling/lichenification, flaky; 3 points, significant: almost all skin is covered with scales/peeling/lichenification, and the scales/peeling/lichenification are thick and layered; 4 points, very obvious: all skin is covered with Scaling/peeling/lichenification, very thick and layered.
Thickening/edema: 0 points, none: flush with normal skin; 1 points, slight: slightly higher than the normal skin surface: 2 points, moderate: moderately raised, with round or sloped plaque edges: 3 points, obvious Score: The plaque is hypertrophic and the bulge is obvious; 4 points, very significant: it is highly thickened and the bulge is very obvious. Skin/auricle hyperplasia inhibition rate (%)=1−[(skin/auricle thickness of the treatment group−skin/auricle thickness of the blank control group)/skin/auricle thickness of the negative control group−skin/auricle of the blank control group thickness)]%.
All data are expressed as Mean±SD or Mean±SEM. Use the statistical analysis software SPSS23.0 to conduct normal distribution and homogeneity of variance tests on the data. […]

psoriasis animal model = assay: Psoriasis animal model (imiquimod cream induced); assay type: in vivo, C57/BL 6J mice; settings: 30 mg/kg oral twice a day
From the text: C57/BL 6J mice, 75, female, 7-8 weeks old, weight 18 g-20 g. The animals were from Zhejiang Weitong Lihua Experimental Animal Technology Co., Ltd. (SCXK (Zhejiang) 2019-0001), experimental animal production certificate number 20210107Abzz0619000247; experimental animal use license number: SYXK (Shanghai) 2020-0001 (Via Biotechnology (Shanghai Co., Ltd).
Modeling and administration method: Use depilatory cream to remove hair from an area of about 2 cm×3 cm on the back of each animal. Control the application time of depilatory cream within 2 minutes. Wash the depilated area with warm water, wash off the depilatory agent, and use immediately. Dry the animal's hair with a hair dryer, and place the animal on a constant-temperature electric blanket at 37° C. for 1 h-2 h. After the animal moves freely, it is placed in a cage for normal rearing and recovery for 1 day (if any animal has red, swollen and damaged skin after hair removal, remove it). On the second day, 54 animals with normal skin were selected and randomly grouped according to body weight, with 9 animals in each group, a total of 6 groups. Each animal in the G2-G6 group was evenly applied with 60 mg (60 μL) of 5 wt % imiquimod cream (Aldara) on the back every day for seven consecutive days.
Skin thickness (double-layer): Use a vernier caliper to measure the double-layer thickness of the back skin before drug administration and modeling, and on days 1, 3, 5, and 7 after drug administration.
PASI score: The condition score refers to the clinical PASI scoring standard, and scores three indicators: erythema, scale, and thickness. The total score is 12 points. The scoring standards are as follows:
Erythema: 0 points, none; 1 points, slight: light red; 2 points, moderate: red; 3 points, significant: dark red; 4 points, very obvious: extremely deep red.
Scaling: 0 points, none; 1 point, slight: there are scales on part of the epidermis, mainly fine scales; 2 points, moderate: most of the skin surface is completely or incompletely covered with scales, in a flaky form; 3 points, Significant: almost all skin is covered with scales, and the scales are thick and layered; 4 points, very obvious: all the skin is covered with scales, and the scales are thick and layered.
Plaque thickening degree: 0 points, none: flush with normal skin; 1 points, slight: slightly higher than the skin surface: 2 points, moderate: moderately raised, with round or sloped plaque edges; 3 points, obvious Score: The plaque is hypertrophic and the bulge is obvious; 4 points, very significant: it is highly thickened and the bulge is very obvious.
Skin proliferation inhibition rate (%)=1−[(skin thickness of the treatment group on the 7th day−skin thickness of the blank control group on the 7th day)/skin thickness of the negative control group on the 7th day−skin thickness of the blank control group on the 7th day)]%.
All data are expressed as Mean t SEM. The statistical analysis software SPSS23.0 was used to conduct normal distribution and homogeneity of variance tests on the data. Based on the results, the single-factor analysis of variance method was selected and the homogeneity of variance test was selected based on the results. *P<0.05 will be considered a statistically significant difference.

[2] = 10 mg/kg oral twice a day, Day 0
[3] = 10 mg/kg oral twice a day, Day 1
[4] = 10 mg/kg oral twice a day, Day 4
[5] = 10 mg/kg oral twice a day, Day 7
[6] = 10 mg/kg oral twice a day, Day 10
[7] = 30 mg/kg oral twice a day, Day 0
[8] = 30 mg/kg oral twice a day, Day 1
[9] = 30 mg/kg oral twice a day, Day 4
[10] = 30 mg/kg oral twice a day, Day 7
[11] = 30 mg/kg oral twice a day, Day 10

## CC[C@@H]1CN(C(=O)NCC(F)(F)F)C[C@@H]1c1cnc2cnc3[nH]ccc3n12 [Upatinib, Upadacitinib, reference compound]
[1]; 10 mg/kg oral twice a day
  Inhibition rate of auricular thickening: 24.14%
  Inhibition rate of skin thickening: 20.40%
[1]; [2]
  AD-SI score: 0.00 points
  Average auricle thickness: 0.20 ± 0.01 mm
  Average skin thickness (double layer): 0.60 ± 0.02 mm
[1]; [3]
  AD-SI score: 0.00 points
  Average auricle thickness: 0.24 ± 0.01 mm
  Average skin thickness (double layer): 0.89 ± 0.04 mm
[1]; [4]
  AD-SI score: 1.00 ± 0.00 points
  Average auricle thickness: 0.32 ± 0.03**^ mm
  Average skin thickness (double layer): 1.07 ± 0.05 mm
[1]; [5]
  AD-SI score: 6.50 ± 1.05 points
  Average auricle thickness: 0.51 ± 0.05 mm
  Average skin thickness (double layer): 2.06 ± 0.25 mm
[1]; [6]
  AD-SI score: 7.17 ± 1.47 points
  Average auricle thickness: 0.65 ± 0.03 mm and 0.65 mm
  Average skin thickness (double layer): 2.23 ± 0.14 mm and 2.23 mm

## C[C@@H]1CCN(C(=O)CC#N)C[C@@H]1N(C)c1ncnc2[nH]ccc12 [Tofacitinib, reference compound]
[1]; 30 mg/kg oral twice a day
  Inhibition rate of auricular thickening: 25.86%
  Inhibition rate of skin thickening: 27.86%
[1]; [7]
  AD-SI score: 0.00 points
  Average auricle thickness: 0.19 ± 0.01 mm
  Average skin thickness (double layer): 0.63 ± 0.03 mm
[1]; [8]
  AD-SI score: 0.00 points
  Average auricle thickness: 0.22 ± 0.01 mm
  Average skin thickness (double layer): 0.99 ± 0.03 mm
[1]; [9]
  AD-SI score: 0.17 ± 0.41 points
  Average auricle thickness: 0.28 ± 0.01 mm
  Average skin thickness (double layer): 1.13 ± 0.1 mm
[1]; [10]
  AD-SI score: 7.17 ± 0.98 points
  Average auricle thickness: 0.44 ± 0.03 mm
  Average skin thickness (double layer): 1.78 ± 0.11 mm
[1]; [11]
  AD-SI score: 6.33 ± 1.37 points
  Average auricle thickness: 0.64 ± 0.05 mm and 0.64 mm
  Average skin thickness (double layer): 2.08 ± 0.13 mm and 2.08 mm
Psoriasis animal model; 7th day of treatment
  Inhibition rate of skin thickening: 69.2%
Psoriasis animal model; Day 0
  Average skin thickness (double layer): 0.51 ± 0.01 mm
  PASI score: 0.0 points
Psoriasis animal model; Day 1
  Average skin thickness (double layer): 0.66 ± 0.02 mm
  PASI score: 0.0 points
Psoriasis animal model; Day 3
  Average skin thickness (double layer): 1.28 ± 0.09** mm
  PASI score: 4.6 ± 0.50 points
Psoriasis animal model; Day 5
  Average skin thickness (double layer): 1.09 ± 0.06*** mm
  PASI score: 4.9 ± 0.42*** points
Psoriasis animal model; Day 7
  Average skin thickness (double layer): 1.05 ± 0.04*** mm and 1.05 mm
  PASI score: 2.8 ± 0.43*** points
